# Like-named read-outs stand apart in the source and are kept apart here.
# Key:
# [1] = test system: HepG2 ATCC HB-8065 cells; assay: Human cell viability / cytotoxicity (CellTiter-Glo, 24 hours); format: cell-based; settings: HepG2 ATCC HB-8065, 24 hours
# In short: (§1)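 HepG2 cells (15,000/well, MEM with 1% NEAA and 1% pyruvate) were grown 2 days, then exposed to compounds in duplicate for 24 h at 1.28% DMSO. Viability was read as ATP by CellTiter-Glo luminescence relative to DMSO-only wells. IC50 is in μg/mL.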
# [2] = biological target: Leucyl-tRNA synthetase (LeuRS) (Escherichia coli (strain K12), UniProt P07813); assay: Leucyl-tRNA synthetase enzyme inhibition (AMP-Glo; single point % inhibition at 100 μM and IC50); format: biochemical
# [3] = biological target: Isoleucyl-tRNA synthetase (IleRS) (Escherichia coli (strain K12), UniProt P00956); assay: Isoleucyl-tRNA synthetase enzyme inhibition (AMP-Glo; single point % inhibition at 100 μM and IC50); format: biochemical
# Text: (§2) Study 1—Enzyme Inhibition
# The aminoacylation reaction catalyzed by aminoacyl-tRNA synthetases (aaRS) takes place in two steps. In the first step, aaRS activates its cognate amino acid with ATP; and in the second step the activated amino acid is loaded to its corresponding tRNA. This reaction can be summarized as follows: aaRS+aa+ATP=aaRS-aa-AMP+PPi aaRS-aa-AMP+tRNA=aa-tRNA+AMP+aaRS […]
# (§3) wherein: aaRS, aminoacyl-tRNA synthetase; aa, amino acid; aaRS-aa-AMP, enzyme-bound to aminoacyl-adenylate; AMP, adenosine monophosphate; aa-tRNA, aminoacyl-tRNA, PPi, inorganic pyrophosphate.
# Isoleucyl-tRNA Synthetase a. Single Point Percentage Inhibition
# (§4) The activity of the pathogenic aaRSs was monitored by measuring AMP production using the commercial kit AMP-Glo (Promega, Madison, USA).
# Ligand stock solutions were prepared in 100% DMSO at 10 mM concentration. An assay buffer consisting of 100 mM Tris HCl pH 7.6, 40 mM MgCl, 20 mM KCl and 150 mM NaCl was prepared in dH2O. An enzyme solution containing 51.77 μM IleRS was prepared in assay buffer to provide 30 nM final assay concentration and 75 nM reservoir concentration for a 1:2.5 dilution in the assay. A substrate solution was also prepared in assay buffer with 50 mM L-isoleucine, 10 mM ATP and 100 mg/mL tRNA. A final assay concentration of 500 μM L-isoleucine, 5 μM ATP and 1 mg/mL tRNA and reservoir concentration of 833.33 μM L-isoleucine, 8.33 μM ATP and 1.67 mg/mL tRNA was used for a 1:1.66 dilution in assay.
# (§5) Enzyme percentage inhibition values were recorded in triplicate at a single point concentration of 100 μM.
# (§6) Using the same enzymatic assay in a 384-well plate format, ten point concentration response curves were generated for each compound using a top concentration of 100 μM. The known inhibitor, IleAMS was used as a positive control for the IleRS assay. 100% DMSO was used as a negative control. The IC50 was calculated based on non-linear regression analysis.
# [4] = Human cell viability / cytotoxicity (CellTiter-Glo, 24 hours); format: cell-based; settings: human, HepG2 cells (ATCC HB-8065); HepG2 ATCC HB-8065, 24 hours; read-out: Cytotoxicity in HepG2 ATCC HB-8065 Cell Line, IC50
# In short: as §1
# [5] = biological target: Valyl-tRNA synthetase (ValRS) (Escherichia coli (strain K12), UniProt P07118); assay: Valyl-tRNA synthetase enzyme inhibition (AMP-Glo; single point % inhibition at 100 μM and IC50); format: biochemical
# Text: as §2
# The aminoacylation reaction catalyzed by aminoacyl-tRNA synthetases (aaRS) takes place in two steps. In the first step, aaRS activates its cognate amino acid with ATP; and in the second step the activated amino acid is loaded to its corresponding tRNA. This reaction can be summarized as follows: aaRS+aa+ATP=aaRS-aa-AMP+PPi aaRS-aa-AMP+tRNA=aa-tRNA+AMP+aaRS
# as §3
# a. Single Point Percentage Inhibition
# as §4
# Ligand stock solutions were prepared in 100% DMSO at 10 mM concentration. An assay buffer consisting of 100 mM Tris HCl pH 7.6, 40 mM MgCl, 20 mM KCl and 150 mM NaCl was prepared in dH2O. An enzyme solution containing 42.33 μM ValRS was prepared in assay buffer to provide 30 nM final assay concentration and 75 nM reservoir concentration for a 1:2.5 dilution in the assay. A substrate solution was also prepared in assay buffer with 50 mM L-valine, 10 mM ATP and 100 mg/mL tRNA. A final assay concentration of 500 μM L-valine, 2.5 μM ATP and 0.5 mg/mL tRNA and reservoir concentration of 833.33 μM L-valine, […] and 0.83 mg/mL tRNA was used for a 1:1.66 dilution in assay.
# as §5
# as §6, with “ValAMS” for “IleAMS”, “ValRS” for “IleRS”
# [6] = test system: E. coli UT189; assay: Efficacy in a murine model of urinary tract infection (microbial burden in urine, bladder, kidney); format: in vivo; settings: Experiment 1, mouse UTI
# Procedure: All animal studies were performed under UK Home Office License PA67E0BAA (protocol E9 for UTI model) with local ethical committee clearance. All studies were performed by technicians who have completed parts A, B and C of the UK Home Office Personal License course and hold current personal licenses. All experiments were performed in dedicated Biohazard 2 facilities (the site holds a Certificate of Designation). Female mice used in these studies were supplied by Janvier laboratories and were specific pathogen free. The strain of mouse used was C3H/HeNRj, which is a well characterized inbred strain. Mice were 16-20 g on receipt and were allowed to acclimatize for at least 7 days prior to any intervention. Five days prior to infection mice were transferred onto drinking water containing 5% glucose. […] It was stored at 4° C. between doses. Test articles were prepared by solubilising in water for injection, taking the salt correction factor into account. […] Mice (n=6 per group) were infected by directly administering 0.05 mL of inoculum via the urethra into the bladder under parenteral anaesthesia. Drinking water was withheld two hours pre-infection and bladders were emptied prior to infection. Once infected, infection catheters were left in the urinary tract for 10 minutes to reduce the risk of the organism flowing back out. The mice were monitored at a frequency appropriate for their clinical condition. Mouse weights were recorded at least once daily both to ensure animals remained within ethical limits and to monitor efficacy of treatment. Twenty-four hours post infection, urine was collected from pre-treatment animals and used to assess the infection level. Urine samples were quantitatively cultured onto MacConkey's agar plates and incubated at 37° C. for 24 hours before colonies were counted. In addition, five mice were euthanised by pentobarbitone overdose to provide a 24 hour pre-treatment control group. Forty-eight hours post-infection, urine was collected from all mice. Seventy-two hours post infection, the clinical condition and body weight of all remaining animals was assessed and urine samples were collected. Animals were then euthanised by pentobarbitone overdose and kidneys and bladders were removed and weighed. Tissue samples were homogenized using a Precellys 24 dual bead beater in 2 mL ice cold sterile phosphate buffered saline. Homogenates and urine samples were quantitatively cultured onto MacConkey's agar plates and incubated at 37° C. for 24 hours before colonies were counted. Data Analysis The data from the culture burdens were analysed using appropriate non-parametric statistical models (Kruskal-Wallis using Conover-Inman to make all pairwise comparisons between groups) with StatsDirect software, and compared to pretreatment and vehicle controls.
# [7] = test system: E. coli ATCC 25922; assay: Efficacy in a murine model of disseminated infection (microbial burden in blood, kidney, spleen); format: in vivo; settings: mouse, harvest 5 hr
# [8] = test system: bacteria (ATCC reference strains); assay: Antibacterial activity, MIC by broth micro-dilution (CLSI)
# [9] = 1.875 mg/kg/dose sc 1 and 3 hr post-infection
# [10] = 7.5 mg/kg/dose po 1 and 3 hr post-infection
# [11] = 7.5 mg/kg/dose sc 1 and 3 hr post-infection
# [12] = 30 mg/kg/dose po 1 and 3 hr post-infection
# [13] = 30 mg/kg/dose sc 1 and 3 hr post-infection
# [14] = 30 mg/kg sc once at 1 hr post-infection
# Sequence of Valyl-tRNA synthetase (ValRS) (P07118 whole entry): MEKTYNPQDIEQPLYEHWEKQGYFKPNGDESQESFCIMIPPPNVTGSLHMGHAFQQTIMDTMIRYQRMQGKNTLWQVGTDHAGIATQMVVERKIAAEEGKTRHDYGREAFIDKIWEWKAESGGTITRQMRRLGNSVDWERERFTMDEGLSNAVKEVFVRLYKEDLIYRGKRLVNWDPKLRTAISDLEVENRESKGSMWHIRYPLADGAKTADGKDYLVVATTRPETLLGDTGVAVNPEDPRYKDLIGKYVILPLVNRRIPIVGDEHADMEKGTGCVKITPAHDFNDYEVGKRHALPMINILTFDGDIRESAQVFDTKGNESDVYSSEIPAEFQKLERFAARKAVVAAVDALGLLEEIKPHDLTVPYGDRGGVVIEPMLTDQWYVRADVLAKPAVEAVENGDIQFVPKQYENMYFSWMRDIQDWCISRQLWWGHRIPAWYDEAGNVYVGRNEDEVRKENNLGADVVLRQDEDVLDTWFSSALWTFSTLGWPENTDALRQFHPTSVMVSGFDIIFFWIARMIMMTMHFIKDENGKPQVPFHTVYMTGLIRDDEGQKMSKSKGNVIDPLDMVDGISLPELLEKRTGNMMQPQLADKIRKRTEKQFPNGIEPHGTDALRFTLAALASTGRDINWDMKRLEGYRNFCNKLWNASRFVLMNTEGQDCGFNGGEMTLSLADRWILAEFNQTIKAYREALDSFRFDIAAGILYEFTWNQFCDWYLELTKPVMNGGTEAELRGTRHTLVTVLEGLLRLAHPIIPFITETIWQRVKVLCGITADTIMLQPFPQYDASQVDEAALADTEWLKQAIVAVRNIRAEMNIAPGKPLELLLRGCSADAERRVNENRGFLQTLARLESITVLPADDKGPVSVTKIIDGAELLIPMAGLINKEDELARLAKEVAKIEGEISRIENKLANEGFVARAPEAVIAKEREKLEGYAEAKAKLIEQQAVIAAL
# Sequence of Leucyl-tRNA synthetase (LeuRS) (P07813 whole entry, looked up): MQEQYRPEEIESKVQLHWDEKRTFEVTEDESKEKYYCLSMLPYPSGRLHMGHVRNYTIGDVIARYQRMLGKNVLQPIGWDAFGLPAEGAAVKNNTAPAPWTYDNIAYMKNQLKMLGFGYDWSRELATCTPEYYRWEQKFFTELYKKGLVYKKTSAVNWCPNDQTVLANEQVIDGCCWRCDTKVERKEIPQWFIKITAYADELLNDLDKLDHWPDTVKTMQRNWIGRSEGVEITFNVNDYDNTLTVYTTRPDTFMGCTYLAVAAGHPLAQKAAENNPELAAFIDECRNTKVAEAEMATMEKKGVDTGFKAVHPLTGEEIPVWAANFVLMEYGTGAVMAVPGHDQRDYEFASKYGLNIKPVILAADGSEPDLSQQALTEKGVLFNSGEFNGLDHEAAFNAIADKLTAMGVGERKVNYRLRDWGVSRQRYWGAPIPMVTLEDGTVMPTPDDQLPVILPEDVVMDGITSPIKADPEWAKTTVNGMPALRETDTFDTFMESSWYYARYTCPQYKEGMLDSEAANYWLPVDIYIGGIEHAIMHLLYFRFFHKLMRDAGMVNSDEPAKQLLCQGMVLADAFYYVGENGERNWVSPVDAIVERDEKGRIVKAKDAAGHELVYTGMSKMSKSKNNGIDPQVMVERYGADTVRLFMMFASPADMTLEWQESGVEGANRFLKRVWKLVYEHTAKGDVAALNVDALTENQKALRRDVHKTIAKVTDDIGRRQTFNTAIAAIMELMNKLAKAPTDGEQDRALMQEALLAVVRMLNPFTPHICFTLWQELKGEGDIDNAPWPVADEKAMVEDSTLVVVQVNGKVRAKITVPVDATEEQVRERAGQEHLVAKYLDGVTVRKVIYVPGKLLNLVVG
# Sequence of Isoleucyl-tRNA synthetase (IleRS) (P00956 whole entry, looked up): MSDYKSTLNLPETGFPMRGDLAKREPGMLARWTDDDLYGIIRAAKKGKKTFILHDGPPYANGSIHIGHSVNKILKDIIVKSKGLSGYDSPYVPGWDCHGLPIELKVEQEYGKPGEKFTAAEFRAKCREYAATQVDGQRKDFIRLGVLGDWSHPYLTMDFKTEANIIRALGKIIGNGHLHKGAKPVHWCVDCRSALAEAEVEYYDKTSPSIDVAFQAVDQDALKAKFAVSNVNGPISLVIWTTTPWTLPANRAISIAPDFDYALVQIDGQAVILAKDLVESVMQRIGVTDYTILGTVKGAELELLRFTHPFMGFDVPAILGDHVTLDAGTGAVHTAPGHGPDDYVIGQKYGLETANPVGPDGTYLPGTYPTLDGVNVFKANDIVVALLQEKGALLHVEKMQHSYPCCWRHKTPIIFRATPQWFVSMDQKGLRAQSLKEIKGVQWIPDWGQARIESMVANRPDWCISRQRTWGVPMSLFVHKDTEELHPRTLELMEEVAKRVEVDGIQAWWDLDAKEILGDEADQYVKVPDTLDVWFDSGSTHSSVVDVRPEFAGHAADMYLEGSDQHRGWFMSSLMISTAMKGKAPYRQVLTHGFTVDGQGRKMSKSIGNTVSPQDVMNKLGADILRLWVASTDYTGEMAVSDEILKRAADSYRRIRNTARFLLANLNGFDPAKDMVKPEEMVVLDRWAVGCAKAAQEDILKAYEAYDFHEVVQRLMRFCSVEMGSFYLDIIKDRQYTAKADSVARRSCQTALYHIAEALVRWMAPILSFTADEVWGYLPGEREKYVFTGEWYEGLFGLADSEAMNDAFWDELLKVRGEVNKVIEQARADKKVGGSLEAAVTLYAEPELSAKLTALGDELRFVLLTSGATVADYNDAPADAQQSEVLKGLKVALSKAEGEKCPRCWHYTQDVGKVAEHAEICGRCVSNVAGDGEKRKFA
smiles,measurement,setting,value
"CC(C)C[C@H](N)C(=O)N=[S@@](N)(=O)c1cccs1.Cl [ANASIA-007-2, (S)-2-amino-N—((R)-amino(oxo) (thiophen-2-yl)-λ6-sulfanylidene)-4-methyl pentanamide hydrochloride]","Cytotoxicity in HepG2 ATCC HB-8065 Cell Line, IC50",[1],>64.0 µg/mL
same,IC50,"[2]; E. coli LeuRS, read-out: Enzyme Inhibition - IC50, E. coli LeuRS",4.9 µM
CC(C)[C@H](N)C(=O)N=S(N)(=O)c1cccc2ccccc12 (stereo partly shown) [ANASIA-025],IC50,"[3]; E. coli IleRS, read-out: Enzyme Inhibition - IC50, E. coli IleRS",> 100 µM
same,IC50 at 24 h,[4],> 64 µg/mL
same,IC50,[5],21.9 µM
CC(C)C[C@H](N)C(=O)N=[S@](N)(=O)c1scc(F)c1F.Cl [ANASIA-103-1],"Reduction in burden from vehicle control, Bladder 72 hr",[6]; 5 mg/kg/dose sc every 4 hours,1.28 Log10 cfu/g or mL
same,"Reduction in burden from vehicle control, Kidney 72 hr",[6]; 5 mg/kg/dose sc every 4 hours,0.93 Log10 cfu/g or mL
same,"Reduction in burden from vehicle control, Urine 48 hr",[6]; 5 mg/kg/dose sc every 4 hours,1.36 Log10 cfu/g or mL
same,"Reduction in burden from vehicle control, Urine 72 hr",[6]; 5 mg/kg/dose sc every 4 hours,0.11 Log10 cfu/g or mL
same,"Reduction in burden from vehicle control, Bladder 72 hr",[6]; 15 mg/kg/dose sc every 4 hours,2.08 Log10 cfu/g or mL
same,"Reduction in burden from vehicle control, Kidney 72 hr",[6]; 15 mg/kg/dose sc every 4 hours,2.28 Log10 cfu/g or mL
same,"Reduction in burden from vehicle control, Urine 48 hr",[6]; 15 mg/kg/dose sc every 4 hours,2.14 Log10 cfu/g or mL
same,"Reduction in burden from vehicle control, Urine 72 hr",[6]; 15 mg/kg/dose sc every 4 hours,2.71 Log10 cfu/g or mL
same,"Reduction in burden from vehicle control, Bladder 72 hr",[6]; 45 mg/kg/dose sc every 4 hours,1.49 Log10 cfu/g or mL
same,"Reduction in burden from vehicle control, Kidney 72 hr",[6]; 45 mg/kg/dose sc every 4 hours,1.25 Log10 cfu/g or mL
same,"Reduction in burden from vehicle control, Urine 48 hr",[6]; 45 mg/kg/dose sc every 4 hours,1.74 Log10 cfu/g or mL
same,"Reduction in burden from vehicle control, Urine 72 hr",[6]; 45 mg/kg/dose sc every 4 hours,2.64 Log10 cfu/g or mL
same,IC50 at 24 h,[4],> 64 µg/mL
same,"Reduction in burden from vehicle control, Blood",[7]; [9],0.32 Log10 cfu/g or mL
same,"Reduction in burden from vehicle control, Kidney",[7]; [9],1.26 Log10 cfu/g or mL
same,"Reduction in burden from vehicle control, Spleen",[7]; [9],0.60 Log10 cfu/g or mL
same,"Reduction in burden from vehicle control, Blood",[7]; [10],0.43 Log10 cfu/g or mL
same,"Reduction in burden from vehicle control, Kidney",[7]; [10],1.28 Log10 cfu/g or mL
same,"Reduction in burden from vehicle control, Spleen",[7]; [10],1.46 Log10 cfu/g or mL
same,"Reduction in burden from vehicle control, Blood",[7]; [11],1.26 Log10 cfu/g or mL
same,"Reduction in burden from vehicle control, Kidney",[7]; [11],1.66 Log10 cfu/g or mL
same,"Reduction in burden from vehicle control, Spleen",[7]; [11],1.64 Log10 cfu/g or mL
same,"Reduction in burden from vehicle control, Blood",[7]; [12],0.81 Log10 cfu/g or mL
same,"Reduction in burden from vehicle control, Kidney",[7]; [12],1.59 Log10 cfu/g or mL
same,"Reduction in burden from vehicle control, Spleen",[7]; [12],1.61 Log10 cfu/g or mL
same,"Reduction in burden from vehicle control, Blood",[7]; [13],2.18 Log10 cfu/g or mL
same,"Reduction in burden from vehicle control, Kidney",[7]; [13],3.06 Log10 cfu/g or mL
same,"Reduction in burden from vehicle control, Spleen",[7]; [13],2.24 Log10 cfu/g or mL
same,MIC,"[8]; Acinetobacter baumannii, read-out: Antibacterial Activity (MIC), E = A. baumannii B1931",16 µg/mL
same,MIC,"[8]; Escherichia coli, ATCC25922, read-out: Antibacterial Activity (MIC), A = E. coli ATCC 25922",1 µg/mL
same,MIC,"[8]; Escherichia coli, BAA2469, read-out: Antibacterial Activity (MIC), G = E. coli BAA-2469",10.1 µg/mL
same,MIC,"[8]; Haemophilus influenzae, ATCC49247, read-out: Antibacterial Activity (MIC), F = H. influenzae ATCC 49247",1 µg/mL
same,MIC,"[8]; Klebsiella pneumoniae, ATCC700603, read-out: Antibacterial Activity (MIC), C = K. pneumoniae ATCC 700603",64 µg/mL
same,MIC,"[8]; Pseudomonas aeruginosa, ATCC27853, read-out: Antibacterial Activity (MIC), D = P. aeruginosa ATCC 27853",64 µg/mL
same,IC50,[2],0.0195 µM
CC(C)[C@H](N)C(=O)N=[S@](N)(=O)c1cccc(OC(F)F)c1 [ANASIA-117-1],IC50,"[5]; E. coli ValRS, read-out: Enzyme Inhibition - IC50, E. coli ValRS",47.9 µM
CC(C)[C@H](N)C(=O)N=S(N)(=O)c1cc2sccc2s1 (stereo partly shown) [ANASIA-118],IC50,[3],52.9 µM
same,IC50,[5],38.6 µM
"CN(C)c1cc(NC(=O)CNC(C)(C)C)c(O)c2c1C[C@H]1C[C@H]3[C@H](N(C)C)C(O)=C(C(N)=O)C(=O)[C@@]3(O)C(O)=C1C2=O [Tigecycline, tigecycline, reference compound]","Reduction in burden from vehicle control, Blood",[7]; [14],5.13 Log10 cfu/g or mL
same,"Reduction in burden from vehicle control, Kidney",[7]; [14],5.62 Log10 cfu/g or mL
same,"Reduction in burden from vehicle control, Spleen",[7]; [14],5.15 Log10 cfu/g or mL

# Source: US12247004B2, “2-amino-N-(amino-oxo-aryl-lambda6-sulfanylidene)acetamide compounds and their therapeutic use” (Oxford Drug Design Limited, priority 2019, dated 2025)
